The text below walks through data of publication PMC5410595, “In Vitro and In Silico Antidiabetic and Antimicrobial Evaluation of Constituents from Kickxia ramosissima (Nanorrhinum ramosissimum)” (Frontiers in Pharmacology, 2017).

Like-named read-outs stand apart in the source and are kept apart here.

The target of one data set is T1, 15-LOX from soybean (Glycine max, UniProt P08170).
T1 sequence (P08170 1-839): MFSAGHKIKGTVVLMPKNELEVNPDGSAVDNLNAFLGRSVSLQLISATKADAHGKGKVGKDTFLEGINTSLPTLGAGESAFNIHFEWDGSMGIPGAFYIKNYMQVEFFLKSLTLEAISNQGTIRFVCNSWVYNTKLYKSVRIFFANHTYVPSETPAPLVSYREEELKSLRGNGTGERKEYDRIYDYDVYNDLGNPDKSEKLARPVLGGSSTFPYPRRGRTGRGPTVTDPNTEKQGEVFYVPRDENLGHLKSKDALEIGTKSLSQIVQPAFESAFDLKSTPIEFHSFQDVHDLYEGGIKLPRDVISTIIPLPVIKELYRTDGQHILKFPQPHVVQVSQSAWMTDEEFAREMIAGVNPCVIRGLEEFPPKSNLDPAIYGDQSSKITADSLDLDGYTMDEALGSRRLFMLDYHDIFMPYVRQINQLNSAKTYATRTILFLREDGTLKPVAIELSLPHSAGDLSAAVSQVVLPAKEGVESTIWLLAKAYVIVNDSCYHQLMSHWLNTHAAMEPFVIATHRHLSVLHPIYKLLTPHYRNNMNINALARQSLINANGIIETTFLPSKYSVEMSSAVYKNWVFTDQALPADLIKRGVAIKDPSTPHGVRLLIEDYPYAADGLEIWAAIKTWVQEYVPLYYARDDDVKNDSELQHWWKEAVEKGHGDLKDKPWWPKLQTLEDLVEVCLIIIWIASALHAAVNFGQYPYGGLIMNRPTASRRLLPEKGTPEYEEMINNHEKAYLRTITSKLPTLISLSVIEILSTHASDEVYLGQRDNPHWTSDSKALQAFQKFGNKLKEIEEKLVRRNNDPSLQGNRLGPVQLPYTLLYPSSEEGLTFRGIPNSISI
As to the kind of experiment: 15-lipoxygenase inhibition assay. Format: biochemical. The protocol: The soybean LOX assay is used as an indication of anti-inflammatory activity ([Muller, 1994]), and therefore during the present investigation, 15-LOX from soybean was used for peroxidation of linoleic acid, and inhibition was measured as described previously with slight modifications ([Malterud and Rydland, 2000]). Briefly, 12.5 μL (2–0.062 mM) of sample was dissolved in DMSO, and added to 487.5 μL of enzyme solution (200 U/mL). The mixture was incubated at room temperature for 5 min. Absorbance was recorded immediately after the addition of 500 μL of substrate (250 μM linoleic acid in 0.2 M borate buffer, pH 9) every minute up to 5 min at 234 nm.
% inhibition of enzyme activity was calculated as,
%inhibition of enzyme activity=([ΔA1/Δt]−[ΔA2/Δt])/(ΔA1/Δt)×100
where ΔA1/Δt and ΔA2/Δt are the increase rate in absorbance at 234 nm for sample without test substance and with test substance, respectively.

Data set [1] deals with Trypanosoma cruzi, Tulahuen LacZ, clone C4. Briefly: Antimicrobial screening panel: Trypanosoma cruzi. It is filed as cell-based. The procedure: (§1) Fractions and isolated compounds were evaluated for antimicrobial activity in an integrated screening panel, also including the human MRC-5 cell line to assess selectivity, as reported before ([Cos et al., 2006]; [Mesia et al., 2008]; [Baldé et al., 2010]; [Amin et al., 2016]).

The next data set concerns Plasmodium falciparum K1. As to the kind of experiment: Antimicrobial screening panel: Plasmodium falciparum. It is filed as cell-based. The protocol:
as §1

The test system of a further data set is Staphylococcus aureus. Briefly: Antimicrobial screening panel: Staphylococcus aureus. It is filed as cell-based. The protocol:
as §1

In data set [2] the test system is MRC-5, human fetal lung fibroblasts. The protocol: as §1
The mark [3] stands for this setting: at the highest test concentration.

Consider `CO[C@H]1C[C@@]2(O)[C@H](O)[C@@H](O)[C@](C)(OC)[C@H]2[C@@H](OC)O1` [Compound 1, Kickxiasine], for which the “15-LOX assay % inhibition” value on 15-LOX from soybean (setting [3]) turned out to be 30%.
Molecule `CC1(O)CCC2C(C(=O)O)=COC(OC3OC(CO)C(O)C(O)C3O)C21` (stereo not shown) [Compound 2, Mussaenosidic acid] had an IC50 at 15-LOX from soybean of 220 µM.
As to `COC(=O)C1=COC(OC2OC(CO)C(O)C(O)C2O)C2C1CCC2(C)O` (stereo not shown) [Compound 3, Mussaenoside], the “15-LOX assay % inhibition” value at 15-LOX from soybean (setting [3]) is given as 37%.
With `COc1ccc(-c2cc(=O)c3c(O)c(OC)c(O)cc3o2)cc1` [Compound 5, Pectolinarigenin], the values for the IC50 (in data set [1]; in the data set on Plasmodium falciparum K1; with Staphylococcus aureus) were 32 µM, 41.8 µM and 49.8 µM, respectively. In addition, the “15-LOX assay % inhibition” value on 15-LOX from soybean came out at 46%. In data set [2], the “cytotoxicity against MRC-5 cells” value is “not cytotoxic”.
For the molecule `COc1ccc(-c2cc(=O)c3c(O)c(OC)c(O[C@@H]4O[C@H](CO[C@@H]5O[C@@H](C)[C@H](O)[C@@H](O)[C@H]5O)[C@@H](O)[C@H](O)[C@H]4O)cc3o2)cc1` [Compound 6, Pectolinarin], at 15-LOX from soybean (read-out: 15-LOX IC50), the IC50 is 250 µM.
On to `COC(=O)c1ccc(O)cc1` [Compound 7, 4-Hydroxy benzoic acid methyl ester], for which the “15-LOX assay % inhibition” value at 15-LOX from soybean (setting [3]) is 30%.

In general, IC50 refers to the midpoint of a concentration-inhibition curve.
